{"source": "patent US20080008674A1", "about": "“Use of C-glycoside derivative for improving the skin's barrier function” (L'OREAL, priority 2006, published 2008)", "test_system": "reconstructed epidermis (Episkin J13)", "test": "Penetration of radiolabelled caffeine through reconstructed human epidermis (barrier function)", "type": "cell-based", "details": "for passage of [14C]-caffeine, percentage of passage relative to an untreated control: 5 days treatment", "experimental": "The efficacy of the barrier function of a skin may be evaluated by measuring the passage through it of a labelled molecule, for instance radiolabelled caffeine.\nSkin with an improved barrier function is thus characterized in that it slows down, or even reduces, the passage of the said molecule through its epidermis.\nTwo batches of reconstructed epidermis (Episkin J13) (batches 1 and 2) are treated for 5 days with the product C-β-D-xylopyranoside-n-propan-2-one, which is applied in the culture medium at a final concentration of 0.2% and 0.04% by weight/volume.\nVitamin C is used as reference molecule at a concentration of 200 μg/ml, in systemic treatment.\nAfter 5 days of culturing, 100 μl and 2 UCi/ml, i.e. 0.04 mM of [^14C]-caffeine (radiolabelled caffeine) and 0.35 mM of cold caffeine (non-radiolabelled caffeine) are applied to the surface, and kinetics of uptake into the medium are determined at eight different times.\nThe results are expressed as a percentage of passage relative to an untreated control.", "note": "Marks after values point to notes of the source that are not given here.", "data": [{"compound": "O=C1O[C@H]([C@@H](O)CO)C(O)=C1O", "note": "[Vitamin C, reference compound]", "values": [{"measurement": "passage of [14C]-caffeine, percentage of passage relative to an untreated control", "setting": "Batch 1 of reconstructed epidermis, 200 μg/ml, sample taken at 1 h 30", "value": 81, "unit": "%"}, {"measurement": "passage of [14C]-caffeine, percentage of passage relative to an untreated control", "setting": "Batch 1 of reconstructed epidermis, 200 μg/ml, sample taken at 3 h", "value": 95, "unit": "%"}, {"measurement": "passage of [14C]-caffeine, percentage of passage relative to an untreated control", "setting": "Batch 1 of reconstructed epidermis, 200 μg/ml, sample taken at 4 h", "value": 81, "unit": "%"}, {"measurement": "passage of [14C]-caffeine, percentage of passage relative to an untreated control", "setting": "Batch 1 of reconstructed epidermis, 200 μg/ml, sample taken at 5 h", "value": "80 * %"}, {"measurement": "passage of [14C]-caffeine, percentage of passage relative to an untreated control", "setting": "Batch 1 of reconstructed epidermis, 200 μg/ml, sample taken at 6 h", "value": 86, "unit": "%"}, {"measurement": "passage of [14C]-caffeine, percentage of passage relative to an untreated control", "setting": "Batch 1 of reconstructed epidermis, 200 μg/ml, sample taken at 7 h", "value": "75 * %"}, {"measurement": "passage of [14C]-caffeine, percentage of passage relative to an untreated control", "setting": "Batch 1 of reconstructed epidermis, 200 μg/ml, sample taken at 9 h", "value": 85, "unit": "%"}, {"measurement": "passage of [14C]-caffeine, percentage of passage relative to an untreated control", "setting": "Batch 1 of reconstructed epidermis, 200 μg/ml, sample taken at 24 h", "value": 85, "unit": "%"}, {"measurement": "passage of [14C]-caffeine, percentage of passage relative to an untreated control", "setting": "Batch 2 of reconstructed epidermis, 200 μg/ml, sample taken at 1 h", "value": 117, "unit": "%"}, {"measurement": "passage of [14C]-caffeine, percentage of passage relative to an untreated control", "setting": "Batch 2 of reconstructed epidermis, 200 μg/ml, sample taken at 2 h", "value": "77 * %"}, {"measurement": "passage of [14C]-caffeine, percentage of passage relative to an untreated control", "setting": "Batch 2 of reconstructed epidermis, 200 μg/ml, sample taken at 3 h", "value": 84, "unit": "%"}, {"measurement": "passage of [14C]-caffeine, percentage of passage relative to an untreated control", "setting": "Batch 2 of reconstructed epidermis, 200 μg/ml, sample taken at 4 h", "value": "86 * %"}, {"measurement": "passage of [14C]-caffeine, percentage of passage relative to an untreated control", "setting": "Batch 2 of reconstructed epidermis, 200 μg/ml, sample taken at 5 h", "value": "71 * %"}, {"measurement": "passage of [14C]-caffeine, percentage of passage relative to an untreated control", "setting": "Batch 2 of reconstructed epidermis, 200 μg/ml, sample taken at 6 h", "value": 94, "unit": "%"}, {"measurement": "passage of [14C]-caffeine, percentage of passage relative to an untreated control", "setting": "Batch 2 of reconstructed epidermis, 200 μg/ml, sample taken at 7 h", "value": 95, "unit": "%"}, {"measurement": "passage of [14C]-caffeine, percentage of passage relative to an untreated control", "setting": "Batch 2 of reconstructed epidermis, 200 μg/ml, sample taken at 8 h", "value": 96, "unit": "%"}, {"measurement": "passage of [14C]-caffeine, percentage of passage relative to an untreated control", "setting": "Batch 2 of reconstructed epidermis, 200 μg/ml, sample taken at 9 h", "value": 85, "unit": "%"}, {"measurement": "passage of [14C]-caffeine, percentage of passage relative to an untreated control", "setting": "Batch 2 of reconstructed epidermis, 200 μg/ml, sample taken at 10 h", "value": 95, "unit": "%"}, {"measurement": "passage of [14C]-caffeine, percentage of passage relative to an untreated control", "setting": "Batch 2 of reconstructed epidermis, 200 μg/ml, sample taken at 24 h", "value": 99, "unit": "%"}]}, {"compound": "CC(=O)C[C@@H]1OC[C@@H](O)[C@H](O)[C@H]1O", "note": "[C-β-D-xylopyranoside-n-propan-2-one]", "values": [{"measurement": "passage of [14C]-caffeine, percentage of passage relative to an untreated control", "setting": "Batch 1 of reconstructed epidermis, 0.04% AM, sample taken at 1 h 30", "value": 52, "unit": "%"}, {"measurement": "passage of [14C]-caffeine, percentage of passage relative to an untreated control", "setting": "Batch 1 of reconstructed epidermis, 0.04% AM, sample taken at 3 h", "value": 66, "unit": "%"}, {"measurement": "passage of [14C]-caffeine, percentage of passage relative to an untreated control", "setting": "Batch 1 of reconstructed epidermis, 0.04% AM, sample taken at 4 h", "value": "64 * %"}, {"measurement": "passage of [14C]-caffeine, percentage of passage relative to an untreated control", "setting": "Batch 1 of reconstructed epidermis, 0.04% AM, sample taken at 5 h", "value": "73 * %"}, {"measurement": "passage of [14C]-caffeine, percentage of passage relative to an untreated control", "setting": "Batch 1 of reconstructed epidermis, 0.04% AM, sample taken at 6 h", "value": "70 * %"}, {"measurement": "passage of [14C]-caffeine, percentage of passage relative to an untreated control", "setting": "Batch 1 of reconstructed epidermis, 0.04% AM, sample taken at 7 h", "value": "69 * %"}, {"measurement": "passage of [14C]-caffeine, percentage of passage relative to an untreated control", "setting": "Batch 1 of reconstructed epidermis, 0.04% AM, sample taken at 9 h", "value": "77 * %"}, {"measurement": "passage of [14C]-caffeine, percentage of passage relative to an untreated control", "setting": "Batch 1 of reconstructed epidermis, 0.04% AM, sample taken at 24 h", "value": "75 * %"}, {"measurement": "passage of [14C]-caffeine, percentage of passage relative to an untreated control", "setting": "Batch 1 of reconstructed epidermis, 0.2% AM, sample taken at 1 h 30", "value": 66, "unit": "%"}, {"measurement": "passage of [14C]-caffeine, percentage of passage relative to an untreated control", "setting": "Batch 1 of reconstructed epidermis, 0.2% AM, sample taken at 3 h", "value": 94, "unit": "%"}, {"measurement": "passage of [14C]-caffeine, percentage of passage relative to an untreated control", "setting": "Batch 1 of reconstructed epidermis, 0.2% AM, sample taken at 4 h", "value": "59 * %"}, {"measurement": "passage of [14C]-caffeine, percentage of passage relative to an untreated control", "setting": "Batch 1 of reconstructed epidermis, 0.2% AM, sample taken at 5 h", "value": "63 * %"}, {"measurement": "passage of [14C]-caffeine, percentage of passage relative to an untreated control", "setting": "Batch 1 of reconstructed epidermis, 0.2% AM, sample taken at 6 h", "value": "63 * %"}, {"measurement": "passage of [14C]-caffeine, percentage of passage relative to an untreated control", "setting": "Batch 1 of reconstructed epidermis, 0.2% AM, sample taken at 7 h", "value": "66 * %"}, {"measurement": "passage of [14C]-caffeine, percentage of passage relative to an untreated control", "setting": "Batch 1 of reconstructed epidermis, 0.2% AM, sample taken at 9 h", "value": "79 * %"}, {"measurement": "passage of [14C]-caffeine, percentage of passage relative to an untreated control", "setting": "Batch 1 of reconstructed epidermis, 0.2% AM, sample taken at 24 h", "value": "70 * %"}, {"measurement": "passage of [14C]-caffeine, percentage of passage relative to an untreated control", "setting": "Batch 2 of reconstructed epidermis, 0.04% AM, sample taken at 1 h", "value": 143, "unit": "%"}, {"measurement": "passage of [14C]-caffeine, percentage of passage relative to an untreated control", "setting": "Batch 2 of reconstructed epidermis, 0.04% AM, sample taken at 2 h", "value": "65 * %"}, {"measurement": "passage of [14C]-caffeine, percentage of passage relative to an untreated control", "setting": "Batch 2 of reconstructed epidermis, 0.04% AM, sample taken at 3 h", "value": 92, "unit": "%"}, {"measurement": "passage of [14C]-caffeine, percentage of passage relative to an untreated control", "setting": "Batch 2 of reconstructed epidermis, 0.04% AM, sample taken at 4 h", "value": "78 * %"}, {"measurement": "passage of [14C]-caffeine, percentage of passage relative to an untreated control", "setting": "Batch 2 of reconstructed epidermis, 0.04% AM, sample taken at 5 h", "value": 84, "unit": "%"}, {"measurement": "passage of [14C]-caffeine, percentage of passage relative to an untreated control", "setting": "Batch 2 of reconstructed epidermis, 0.04% AM, sample taken at 6 h", "value": "80 * %"}, {"measurement": "passage of [14C]-caffeine, percentage of passage relative to an untreated control", "setting": "Batch 2 of reconstructed epidermis, 0.04% AM, sample taken at 7 h", "value": 91, "unit": "%"}, {"measurement": "passage of [14C]-caffeine, percentage of passage relative to an untreated control", "setting": "Batch 2 of reconstructed epidermis, 0.04% AM, sample taken at 8 h", "value": "88 * %"}, {"measurement": "passage of [14C]-caffeine, percentage of passage relative to an untreated control", "setting": "Batch 2 of reconstructed epidermis, 0.04% AM, sample taken at 9 h", "value": 93, "unit": "%"}, {"measurement": "passage of [14C]-caffeine, percentage of passage relative to an untreated control", "setting": "Batch 2 of reconstructed epidermis, 0.04% AM, sample taken at 10 h", "value": "85 * %"}, {"measurement": "passage of [14C]-caffeine, percentage of passage relative to an untreated control", "setting": "Batch 2 of reconstructed epidermis, 0.04% AM, sample taken at 24 h", "value": 99, "unit": "%"}, {"measurement": "passage of [14C]-caffeine, percentage of passage relative to an untreated control", "setting": "Batch 2 of reconstructed epidermis, 0.2% AM, sample taken at 1 h", "value": 162, "unit": "%"}, {"measurement": "passage of [14C]-caffeine, percentage of passage relative to an untreated control", "setting": "Batch 2 of reconstructed epidermis, 0.2% AM, sample taken at 2 h", "value": "61 * %"}, {"measurement": "passage of [14C]-caffeine, percentage of passage relative to an untreated control", "setting": "Batch 2 of reconstructed epidermis, 0.2% AM, sample taken at 3 h", "value": 82, "unit": "%"}, {"measurement": "passage of [14C]-caffeine, percentage of passage relative to an untreated control", "setting": "Batch 2 of reconstructed epidermis, 0.2% AM, sample taken at 4 h", "value": "67 * %"}, {"measurement": "passage of [14C]-caffeine, percentage of passage relative to an untreated control", "setting": "Batch 2 of reconstructed epidermis, 0.2% AM, sample taken at 5 h", "value": "75 * %"}, {"measurement": "passage of [14C]-caffeine, percentage of passage relative to an untreated control", "setting": "Batch 2 of reconstructed epidermis, 0.2% AM, sample taken at 6 h", "value": "75 * %"}, {"measurement": "passage of [14C]-caffeine, percentage of passage relative to an untreated control", "setting": "Batch 2 of reconstructed epidermis, 0.2% AM, sample taken at 7 h", "value": "84 * %"}, {"measurement": "passage of [14C]-caffeine, percentage of passage relative to an untreated control", "setting": "Batch 2 of reconstructed epidermis, 0.2% AM, sample taken at 8 h", "value": "80 * %"}, {"measurement": "passage of [14C]-caffeine, percentage of passage relative to an untreated control", "setting": "Batch 2 of reconstructed epidermis, 0.2% AM, sample taken at 9 h", "value": 88, "unit": "%"}, {"measurement": "passage of [14C]-caffeine, percentage of passage relative to an untreated control", "setting": "Batch 2 of reconstructed epidermis, 0.2% AM, sample taken at 10 h", "value": "80 * %"}, {"measurement": "passage of [14C]-caffeine, percentage of passage relative to an untreated control", "setting": "Batch 2 of reconstructed epidermis, 0.2% AM, sample taken at 24 h", "value": 95, "unit": "%"}, {"measurement": "slowing down of caffeine passage compared with vitamin C (reference molecule)", "setting": "result in words, comparison with vitamin C 200 μg/ml", "value": "greater"}, {"measurement": "effect on the passage of the radiolabelled caffeine through the reconstructed epidermides (barrier function)", "setting": "result in words, two batches of reconstructed epidermis", "value": "slows down the passage of the radiolabelled caffeine"}]}]}
